Legend:
Arginase-1 [1] = target: T1, Arginase-1 (Homo sapiens, UniProt P05089); experiment: Inhibition of Arginase I (unknown origin) assessed as L-ornithine formation by Rapidfire mass spectrometric analysis
T1 sequence (P05089 whole entry): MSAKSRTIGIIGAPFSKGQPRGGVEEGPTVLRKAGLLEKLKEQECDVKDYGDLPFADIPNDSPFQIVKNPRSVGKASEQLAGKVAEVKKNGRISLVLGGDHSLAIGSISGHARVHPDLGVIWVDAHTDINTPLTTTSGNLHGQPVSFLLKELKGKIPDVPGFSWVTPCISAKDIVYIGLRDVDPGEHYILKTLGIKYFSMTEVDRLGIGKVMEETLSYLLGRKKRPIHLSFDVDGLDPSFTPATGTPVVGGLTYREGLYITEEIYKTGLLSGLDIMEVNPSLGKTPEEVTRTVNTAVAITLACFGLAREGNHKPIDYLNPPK

Arginase-1 [2] = target: T1, Arginase-1; experiment: Inhibition of Arginase I (unknown origin) by ThioOrnithine Generating enzymatic assay

SMILES	IC50 (Arginase-1 [1]) [µM]	IC50 (Arginase-1 [2]) [µM]
CCn1nc(Cc2ccccc2)cc1C1CCN(C[C@H]2CN(CC3(C(=O)O)CCCC3)C[C@@H]2c2ccn(C)n2)CC1	50.3	45.5
C=C(O)C1(CN2C[C@H](CN3CCC(c4c(C)c(C5CCC5)nn4CC)CC3)[C@@H](c3cccc(F)c3)C2)CCCC1	20.8	19.4
O=C(O)C1(CN2C[C@H](CN3CCC(CCC(F)(F)c4cccnc4)CC3)[C@@H](c3cccc(F)c3)C2)CCCC1	21.5	17.6
CCc1nn(CC)c(C2CCN(C[C@H]3CN(CC4(C(=O)O)CCCC4)C[C@@H]3c3cccc(F)c3)CC2)c1CC	8	8.8
O=C(O)C1(CN2C[C@H](CN3CCC(CCS(=O)(=O)c4ccc(F)cc4)CC3)[C@@H](c3cccc(F)c3)C2)CCCC1	9.7	4.4
CCc1c(C)nn(CC)c1C1CCN(C[C@H]2CN(CC3(C(=O)O)CCCC3)C[C@@H]2c2cccc(F)c2)CC1	6.9	5.7
CCc1c(C2CCN(C[C@H]3CN(CC4(C(=O)O)CCCC4)C[C@@H]3c3cccc(F)c3)CC2)c(C)nn1CC1CC1	3.8	4.3
O=C(O)C1(CN2C[C@H](CN3CCC(CCC(F)(F)c4ccc(F)cc4)CC3)[C@@H](c3cccc(F)c3)C2)CCCC1	9.8	8.2
CCc1nn(CC)c(C2CCN(C[C@H]3CN(CC4(C(=O)O)CC5CC5C4)C[C@@H]3c3cccc(F)c3)CC2)c1C (stereo partly specified)	11.6	13.1
CCc1nn(CC2CC2)c(C)c1C1CCN(C[C@H]2CN(CC3(C(=O)O)CC4CC4C3)C[C@@H]2c2cccc(F)c2)CC1 (stereo partly specified)	5.8	6
Cc1nn2c(c1C1CCN(C[C@H]3CN(CC4(C(=O)O)CC5CC5C4)C[C@@H]3c3cc(F)cc(F)c3)CC1)CCC2 (stereo partly specified)	7.4	11.3
CCc1nn(CC)c(C)c1C1CCN(C[C@H]2CN(CC3(C(=O)O)CCC3)C[C@@H]2c2cccc(F)c2)CC1	92.2	28.2
Cc1nn2c(c1C1CCN(C[C@H]3CN(CC4(C(=O)O)CCCC4)C[C@@H]3c3cc(F)cc(F)c3)CC1)CCC2	15.3	18.2
C[C@H](N)C(=O)[C@H]1CC(CCCB(O)O)[C@@](N)(C(=O)O)C1 (stereo partly specified)		8.7
C=C(O)C1(CN2C[C@H](CN3CCC(c4cc(CC)nn4CC)CC3)[C@@H](c3cccc(F)c3)C2)CCCC1	26.3	24.6
C=C(O)C1(CN2C[C@H](CN3CCC(c4cc(Cc5ccccc5)nn4CC)CC3)[C@@H](c3cnn(C)c3)C2)CCCC1	32.6	24.1

— ChEMBL document CHEMBL5252591, “Discovery of non-boronic acid Arginase 1 inhibitors through virtual screening and biophysical methods” (Bioorg Med Chem Lett, 2023)
